Where two headings read alike, the source gives them in different places. Blank lines part the entries; values can stand above or below the compound they belong to.
What was measured:
[1] = target: T1, HDAC1-CoREST-LSD1 complex (Homo sapiens, UniProt O60341); assay: LSD1 HRP-coupled demethylase assay, TCP analogues; type: biochemical; conditions: for LSD1 inhibition at 50 μM: single concentration 50 μM, compared to no compound treatment control
T1 construct: full length native LSD1 (UniProt ID: O60341); made in house; host or cells: HEK 293F cells (co-transfection, pcDNA3 vectors)
Procedure: We then evaluated LSD1 inhibition in the LSD1-HDAC1-CoREST complex using the established horseradish peroxidase (HRP) assay.[8]
(§1) 2. Supplementary Information: Biology
(§2) 2.1. LSD-HDAC1-CoREST expression and purification
(§3) Lysis Buffer (Buffer A) Wash Buffer (Buffer B)
(§4) • 50 mM Tris/Cl pH 7.5 • 50 mM Tris/Cl pH 7.5
(§5) • 50 mM Potassium Acetate • 50 mM Potassium Acetate […]
(§6) Cleavage Buffer (Buffer C) Gel Filtration Buffer (Buffer D)
(§7) • 50 mM Tris/Cl pH 7.5 Filtered at vacuum.
(§8) • 50 mM Potassium Acetate • 50 mM Tris/Cl pH 7.5
(§9) • 5 % v/v Glycerol • 50 mM Potassium Acetate
(§10) • 0.5 mM tris(2- • 0.5 mM TCEP carboxyethyl)phosphine (TCEP)
(§11) The CoREST ternary complex was comprised of full length native LSD1 (UniProt ID: O60341), full length HDAC1 (UniProt ID: Q13547) and N-terminally truncated RCOR1 (86-485aa) (UniProt ID:
(§12) Q9UKL0). Protein constructs were cloned into pcDNA3 vector. The RCOR1 constructs contained an N-terminal (His)10(Flag)3 tag followed by a Tev protease cleavage site. The constructs for ternary complex were co-transfected into suspension-grow HEK 293F cells (Thermofisher Scientific) with polyethylenimine (PEI) (Sigma) and harvested after 48 hours. This section of the procedure was carried out as described previously in literature.11,12
(§13) Cell pellets from 1.2 L culture were defrosted, and buffer A (30 mL) was added. The solution was sonicated (Soniprep 150) in an beaker of ice using a 9 mm probe at 10 ampules; operated with 10 […]
Components and concentrations for the HRP-coupled demethylase assay […]
The assay components are shown at their final concentrations per well in the table above. CoREST complex (HDAC 1/RCOR1/LSD1) was added to the assay buffer alongside either DMSO or the relevant inhibitor at the desired concentration on black-walled 96 well plates. Alongside this was another control, with DMSO but no CoREST or inhibitor. Plates were spun to 3000 rpm between each addition of a reagent. Plates were incubated at 20 °C for 30 mins, following which HRP/Amplex Ultrared (1:1 mixture) and peptide was added. Plates were spun, then read on an PerkinElmer 2030 Explorer plate reader, with excitation of 530 nm and […] of 590 nm, with 7 readings taken over […]
Components, where bought in, are listed below:
HRP – Pierce™ Horseradish Peroxidase, Invitrogen
H3K4me2 peptide – Histone H3 dimethyl lysine-4 peptide, Enzo Life Sciences Amplex UltraRed, ThermoFisher Scientific
To the assay buffer was added HRP/AMP in each well to concentrations equal to those in above, following which hydrogen peroxide solution (diluted from 3% hydrogen peroxide solution into a 20 mM stock) was added, in a 1 in 3 dilution series with final concentrations starting from 3 mM.
Negative control wells contained either 100% buffer or as above with no hydrogen peroxide solution.

[2] = target: T2, LSD1-HDAC1-CoREST complex (Homo sapiens, UniProt O60341); assay: LSD1 HRP-coupled demethylase assay, SP2509/SP2577 analogues; type: biochemical
T2 construct: full length native LSD1 (UniProt ID: O60341); made in house; host or cells: HEK 293F cells (co-transfection, pcDNA3 vectors)
Procedure: The analogues synthesised were then tested for their ability to inhibit LSD1 using purified LSD1-HDAC1-CoREST complex (Fig. 2B). We used an established fluorescent read out horseradish peroxidase (HRP) assay to monitor LSD1 enzymatic activity in the CoREST complex[8] (see ESI ^† for full details).
as §1, §2, §3, §4, §5, §6, §7, §8, §9, §10, §11, §12, §13
2.2. SP2509/SP2577 analogues LSD1 HRP-coupled demethylase assay protocol The commercial reagents for the assay were HRP and Amplex® Ultrared, which are available to purchase from ThermoFisher (31490) and Invitrogen (10737474), respectively. HRP was made up to 8 mg/mL stock solution in 1xPBS buffer, divided into 10 µL aliquots, snap-frozen in liquid nitrogen and stored at -80 °C. Amplex® Ultrared was made up to 10 mM solution in DMSO, divided into 20 µL aliquots and wrapped in foil, away from light and stored at -20 °C. For each assay experiment, CoREST complex was diluted to 500 nM in assay buffer (20 mM HEPES pH 7.5 and 50 mM NaCl).
HRP was defrosted by diluting each aliquot in 90 µL 1xPBS solution, making a 0.8 mg/mL solution.
Amplex® Ultrared was made up to 200 µM in assay buffer. HRP and Amplex® Ultrared were pre-mixed before addition to the plate. H3K4Me2 substrate (4 mM in deionised water) was diluted to 300 µM in assay buffer. All stocks were stored on ice during assay preparation.
The assay was carried out using a ‘black well’ 96 well plate (Corning no. 3915) in a reaction volume of 100 μL. The final concentrations in the assay were as follows: 50 nM CoREST complex, 10 μM Amplex® UltraRed, 0.04 mg/mL HRP and 15 μM H3K4Me2 peptide substrate. The final DMSO concentration in each well was 1.1 %. Three wells of each experiments were designated ‘background controls’ and contained 85 μL assay buffer, premixed Amplex® UltraRed and HRP (10 µL) and H3K4Me peptide substrate (300 μM, 5 µL).
A stock solution of inhibitor (1 -5 mM in DMSO) was subjected to an inhibitor dilution series, in Eppendorf tubes, in 100 % DMSO. Each new inhibitor stock (4 μL) was diluted in assay buffer (1 in 75) within a new Eppendorf set with assay buffer (20 mM HEPES pH 7.5 and 50 m M NaCl), ensuring the percentage of DMSO was consistent throughout the series. To each well of interest, Inhibitor in assay buffer (75 μL) was added, and CoREST complex (500 nM, 10 µL) was added thereafter. The plate was placed on a rocker and pre -incubated for 30 mins. To each well, premixed Amplex® UltraRed and HRP (10 µL) was added before H3K4Me 2 peptide substrate in assay buffer solution (300 μM, 5 µL) was added to the wall of the plate. The plate was covered in foil and spun down for one minute before being placed in the plate reader. The final percentage concentration of DMSO in […]

[3] = test system: H3K4me2 in HCT116 cells; assay: Histone methylation H3K4me2 by western blot; type: cell-based, human; conditions: HCT116, 0.1–10 μM, 24 hours, H3K4me2 antibody
Procedure: We next screened 25–33 and SP2509 over a concentration range of 0.1–10 μM in HCT116 cells (obtained from ATCC, CCL-247) and determined LSD1 abundance after 24 hours with an antibody for LSD1 (Fig. S4 ^†). […] Using the same conditions, we also determined the effects of SP2509, 25, 27, 28, 30 and 31 on histone H3 lysine 4 dimethyl (H3K4me2) a validated substrate for LSD1 using a specific antibody for H3K4me2 (Fig. S4 ^†).
Compounds 39–41, 49, 52 and 54 were screened for LSD1 degradation in HCT116 cells using a specific antibody for LSD1. This was performed side-by-side with TCP. Compounds were tested at concentration ranges of 0.2–20 μM and LSD1 abundance was quantified at 24 hours (Fig. S5 ^†). 49, 52 and 54 were also evaluated at 48 and 72 hours. […] We also determined the effects of these compounds on the histone methyl marker H3K4me2 (Fig. S5 and S6 ^†).
2.5 Protocols for LSD1 degradation and histone methylation in HCT116 cells HCT116 human colon carcinoma cells were grown in Dulbecco’s Modified Eagle Medium (DMEM) supplemented with Fetal Bovine Serum (FBS, 10% final concentration) and 1x glutamine/penicillin/streptomycin. Cells were incubated at 37 °C and 5% CO2. Cells were treated with compounds (0.1-20 µM) with a final DMSO volume of 0.04%. DMSO (0.04%) treated and untreated (WT) cells were included as controls.
HCT116 cells were seeded into six well plates (400000 cells per well) and after requisite compound treatment time (24h, 48h, 72h) cells were harvested and either snap-frozen in liquid nitrogen or lysed in lysis buffer (50mM Tris-HCl, 150 mM NaCl, 0.5% NP-40, 0.5% Triton X-100 + protease inhibitor) on ice for 30 mins. This was centrifuged (15000 rpm, 4 °C, 15 mins) and the supernatant collected.
H2SO4 (0.4 M, equal volume) was added to the pellets for histone extraction and the tubes incubated overnight at 4 °C. Following this, the histone extract was centrifuged (15000 rpm, 4 °C, 15 mins) and the supernatant collected. Protein concentrations of whole cell extract were quantified via Bradford Assay using BIO-RAD Protein Assay Dye Reagent Concentrate.
Western blots were run on NuPAGE 4-12% Bis-Tris gels, with 30 µg of protein (whole cell extract) or an equivalent volume of histone extract loaded per lane, with all extracts dyed with 4x NuPAGE LDS Sample Buffer. PageRuler Plus Prestained Ladder was used as a reference. Gel electrophoresis was carried out at 140 V for 60-90 mins, following which the proteins were transferred onto nitrocellulose membrane at 30 V for 60 mins. Membranes were blocked in LI-COR Intercept Blocking Buffer overnight at RT on a roller, following which the membrane was probed with primary antibodies for 1 h at RT. The membrane was washed with PBS + 0.1% Tween (3 x 10 mins), then incubated with secondary antibodies for 50 mins at RT. The membrane was washed again (PBS Tween 2 x 10 mins, PBS 1 x 10 mins) following which the blot was visualised with the Odyssey Infrared Imaging System. Image processing and quantification was performed with ImageStudio Lite. […]
a-tubulin (mouse) – Sigma, t5168 (1:10000 dilution)

[4] = LSD1 enzymatic activity, complex 50 nM, HRP assay, SP2509 value is mean of three sets, read-out: LSD1-HDAC1-CoREST IC50
[5] = per parallel set, each set with SP2509 as reference standard, read-out: IC50 from dose response curves (Figure S1)

IC50 ([1]; complex 50 nM, mean ± SD from three replicates): 94 nM
enhancement in LSD1 inhibition compared to TCP ([1]; ratio of IC50 values): approximately 100 fold
Structure (SMILES): COC(=O)c1ccc([C@@H]2C[C@H]2N)cc1 [compound 55]

IC50 [2, 4]: 12.4 nM
IC50 [2, 5]: 12 nM
Structure (SMILES): COc1ccc(C(C)=NNC(=O)c2cccc(S(=O)(=O)N3CCOCC3)c2)c(O)c1 [compound 10]

IC50 ([2]; LSD1 enzymatic activity, complex 50 nM, HRP assay, read-out: LSD1-HDAC1-CoREST IC50): > 20000 nM
Structure (SMILES): CC(=NNC(=O)c1cccc(S(=O)(=O)N2CCN(C(=O)OC(C)(C)C)CC2)c1)c1cc(Cl)ccc1O [compound 11]

IC50 [2, 4]: 159 nM
Structure (SMILES): C/C(=N\NC(=O)c1cccc(S(=O)(=O)N2CCOCC2)c1)c1cc(OCCOCCC(=O)OC(C)(C)C)ccc1O [compound 13]

IC50 [2, 4]: 12.8 nM
IC50 [2, 5]: 13 nM
Structure (SMILES): COc1ccc(O)c(C=NNC(=O)c2cccc(S(=O)(=O)N3CCOCC3)c2)c1 [compound 9]

IC50 [2, 4]: 108 nM
Structure (SMILES): C/C(=N\NC(=O)c1cccc(S(=O)(=O)N2CCN(CCOCCC(=O)OC(C)(C)C)CC2)c1)c1cc(Cl)ccc1O [compound 15]

IC50 [2, 4]: 20.6 nM
IC50 [2, 5]: 21 nM
Structure (SMILES): C/C(=N\NC(=O)c1cccc(S(=O)(=O)N2CCNCC2)c1)c1cc(Cl)ccc1O [compound 14]

IC50 [2, 4]: 14.5 nM
IC50 [2, 5]: 15 nM
Structure (SMILES): COc1ccc(O)c(C(C)=NNC(=O)c2cccc(S(=O)(=O)N3CCOCC3)c2)c1 [compound 8]

IC50 [2, 4]: 113 nM
Structure (SMILES): C/C(=N\NC(=O)c1cccc(S(=O)(=O)N2CCOCC2)c1)c1ccc(OCCOCCC(=O)OC(C)(C)C)cc1O [compound 12]

LSD1 inhibition at 50 μM ([1]; complex 50 nM): not LSD1 inhibitors
Structure (SMILES): O=C(CCCCC(=O)NC1CC1c1ccccc1)NCCNc1cccc2c1C(=O)N(C1CCC(=O)NC1=O)C2=O (centres unmarked) [compound 40]

The remaining lines, values behind:

Structure (SMILES): Cc1ncsc1-c1ccc(CNC(=O)[C@@H]2C[C@@H](O)CN2C(=O)[C@@H](NC(=O)CCCCCCCCCCC(=O)NC2CC2c2ccccc2)C(C)(C)C)cc1 (some centres unmarked) [compound 39]
LSD1 inhibition at 50 μM ([1]; complex 50 nM): not LSD1 inhibitors

Structure (SMILES): O=C(CCCCCCCCCCC(=O)NC1CC1c1ccccc1)NCCNc1cccc2c1C(=O)N(C1CCC(=O)NC1=O)C2=O (centres unmarked) [compound 41]
LSD1 inhibition at 50 μM ([1]; complex 50 nM): not LSD1 inhibitors

Structure (SMILES): C/C(=N\NC(=O)c1cccc(S(=O)(=O)N2CCOCC2)c1)c1cc(OCCOCCC(=O)N[C@H](C(=O)N2C[C@H](O)C[C@H]2C(=O)NCc2ccc(-c3scnc3C)cc2)C(C)(C)C)ccc1O [compound 25]
H3K4me2 abundance [3]: no increase in H3K4me2

Structure (SMILES): C/C(=N\NC(=O)c1cccc(S(=O)(=O)N2CCOCC2)c1)c1cc(OCCCC(=O)N[C@H](C(=O)N2C[C@H](O)C[C@H]2C(=O)NCc2ccc(-c3scnc3C)cc2)C(C)(C)C)ccc1O [compound 27]
H3K4me2 abundance [3]: no increase in H3K4me2

Structure (SMILES): C/C(=N\NC(=O)c1cccc(S(=O)(=O)N2CCOCC2)c1)c1cc(OCCCCCCCC(=O)N[C@H](C(=O)N2C[C@H](O)C[C@H]2C(=O)NCc2ccc(-c3scnc3C)cc2)C(C)(C)C)ccc1O [compound 28]
H3K4me2 abundance [3]: no increase in H3K4me2

Structure (SMILES): C/C(=N\NC(=O)c1cccc(S(=O)(=O)N2CCOCC2)c1)c1cc(OCCOCCC(=O)NCCNc2cccc3c2C(=O)N(C2CCC(=O)NC2=O)C3=O)ccc1O (centres unmarked) [compound 30]
H3K4me2 abundance [3]: no increase in H3K4me2

Structure (SMILES): Cc1ncsc1-c1ccc(CNC(=O)[C@@H]2C[C@@H](O)CN2C(=O)[C@@H](NC(=O)CCCCC(=O)NC2CC2c2ccccc2)C(C)(C)C)cc1 (some centres unmarked) [compound 38]
LSD1 inhibition at 50 μM ([1]; complex 50 nM): modest inhibition

Structure (SMILES): C/C(=N\NC(=O)c1cccc(S(=O)(=O)N2CCOCC2)c1)c1cc(OCCOCCOCCC(=O)NCCNc2cccc3c2C(=O)N(C2CCC(=O)NC2=O)C3=O)ccc1O (centres unmarked) [compound 31]
H3K4me2 abundance [3]: no increase in H3K4me2
